# Results reported in patent publication US6699505B2, “Method of increasing the efficacy of antibiotics by compexing with cyclodextrins” (Massachusetts Institute of Technology, priority 2000, dated 2004).
# How the values were obtained:
# P. gingivalis = experiment: Zone of inhibition of PLGA chips in wells of seeded agar plates; type: cell-based; details: PLGA chips 4 mm×5 mm×0.5 mm in wells, anaerobic 37° C., measured daily
# Excerpt: (§1) FIG. 1 is a graph charting the change in size of the zone of growth inhibition of the bacterium P. gingivalis over time. The antibiotic being tested (complexed or non-complexed) is applied to a specific point near or within an area of bacterial growth on an agar plate. The bioactive agent diffuses from the application point and causes lysis of already growing bacteria, or inhibition of growth of bacteria within the zone of diffusion. The diameter of bacterial lysis or growth inhibition is a measure of the potency of the bioactive agent. […] A relatively small zone of lysis or growth inhibition indicates a less biologically active agent.
# (§2) Increased biological activity of the antibiotic chlorhexidine was tested by placing chips composed of chorhexidine (C) and clorhexidine digluconate (Cg) complexed with hydroxypropyl-β-cyclodextrin (H) or methylated β-cyclodextrin adjacent to a tooth in agar seeded with P. gingivalis or B. forsythus. The agar plates were incubated to allow growth of the bacterium for 12-15 days and the zone of inhibition of bacterial growth around each chip was measured. An increase in biological activity was measured by an increase in the size of the zone of inhibition around the chip containing the complexed antibiotic compared to the size of the zone around the chip containing the uncomplexed antibiotic.
# (§3) More particularly, the method used the following steps:
# (§4) Mix: 5 g Trypticase Soy Agar
# (§5) 6.5 g Brain Heart Infusion
# (§6) Autoclave mixture for 15 minutes at 121 degree Celsius.
# (§7) Cool to 50 degrees Celsius for 1 hour.
# (§8) Add: 12.5 mL defibrinated sheep blood.
# (§9) 300 uL N-acetylmuramic acid (100x).
# (§10) Prepared B. forsythus and P. gingivalis culture solution with an optical density of 1˜10^9 cells/mL.
# (§11) Added 2 mL of bacteria culture into their respective agar solutions.
# (§12) Pour 20 mL agar solution into 150 mm diameter petri dishes.
# (§13) Place well former into petri dishes.
# (§14) Allow agar to harden by cooling to room temperature for 1 hour.
# (§15) Place petri dishes in anaerobic chamber at 37° C. in an atmosphere consisting of 80% nitrogen, 10% hydrogen, and 10% carbon dioxide for 2 days.
# (§16) Place 4 mm×5 mm×0.5 mm PLGA chips composed of: Cg, C, C/H, Cg/M, M, and H into preformed wells.
# (§17) Masses of each component based on 25 wt % of Cg with respect to a 10 mg chip.
# (§18) Add MilliQ water into wells to keep chips hydrated.
# (§19) Keep petri dishes in anaerobic chamber during entire experiment.
# (§20) Measure zones of inhibition daily using electronic calipers from the center of the well.
# (§21) Experiments done in triplicate.
# B. forsythus = experiment: as above; type: cell-based; details: for zone of inhibition of bacterial growth: PLGA chips 4 mm×5 mm×0.5 mm in wells, B. forsythus agar, anaerobic 37° C., measured daily
# Excerpt: as §1, §2, §3, §4, §5, §6, §7, §8, §9, §10, §11, §12, §13, §14, §15, §16, §17, §18, §19, §20, §21
SMILES,zone of inhibition of bacterial growth (P. gingivalis),"zone of inhibition (B. forsythus; B. forsythus, FIG. 1 right panel)",zone of inhibition of bacterial growth (B. forsythus)
"[H]/N=C(\N/C(=N/[H])NCCCCCCNC(=N)NC(=N)Nc1ccc(Cl)cc1)Nc1ccc(Cl)cc1 [C, Chlorhexidine]",statistically similar,about 40 mm,statistically similar
"N=C(NCCCCCCNC(=N)NC(=N)Nc1ccc(Cl)cc1)NC(=N)Nc1ccc(Cl)cc1.O=C(O)[C@H](O)[C@@H](O)[C@H](O)[C@H](O)CO.O=C(O)[C@H](O)[C@@H](O)[C@H](O)[C@H](O)CO [Cg, Chlorhexidine Digluconate]",statistically similar,–,statistically similar
